According to patent US20250108038A1 (priority 2023, published 2025):

Tests used:
[1] = tested on: HEK293 uptake transporter overexpressing and control cells; experiment: Resazurin-based cytotoxicity assay
Protocol: The cells were plated on 96-well plates. Prior to the experiment the medium was removed, and cells were rinsed with 2×100 μL of the respective buffer for uptake transporter transfected and control cell lines.

BSEP = BSEP (Homo sapiens, UniProt O95342); experiment: Vesicular transport inhibition assay, BSEP (taurocholate)
Protocol: (§1) Vesicular transport assays were performed with inside-out membrane vesicles prepared from cells overexpressing human ABC (efflux) transporters. The transporters were expressed by SOLVO Biotechnology in mammalian (HEK293) cells. The mammalian cells were stably transfected with the ABC transporter of interest. The assays were conducted according to the actual SOLVO VT assay protocols (PR-ASY-VT-General Protocol for Vesicular Transport Inhibition Assays).
(§2) The membrane vesicle suspension was mixed with the ice-cold transport buffer, then the probe substrate solution was added. […] (for BCRP and MDR1). […] Reactions were quenched by the addition of 200 μL of ice-cold washing buffer and immediate filtration via glass fiber filters mounted to a 96-well plate (filter plate). The filters were washed (5×200 μL of ice-cold washing buffer), dried and the amount of substrate inside the filtered vesicles was determined by liquid scintillation counting.
(§3) Incubation with AMP provided background activity values for all data points.

BCRP = molecular target: T1, BCRP (Homo sapiens, UniProt Q9UNQ0); experiment: Vesicular transport inhibition assay, BCRP (estrone-3-sulfate)
T1 sequence (Q9UNQ0 1-655): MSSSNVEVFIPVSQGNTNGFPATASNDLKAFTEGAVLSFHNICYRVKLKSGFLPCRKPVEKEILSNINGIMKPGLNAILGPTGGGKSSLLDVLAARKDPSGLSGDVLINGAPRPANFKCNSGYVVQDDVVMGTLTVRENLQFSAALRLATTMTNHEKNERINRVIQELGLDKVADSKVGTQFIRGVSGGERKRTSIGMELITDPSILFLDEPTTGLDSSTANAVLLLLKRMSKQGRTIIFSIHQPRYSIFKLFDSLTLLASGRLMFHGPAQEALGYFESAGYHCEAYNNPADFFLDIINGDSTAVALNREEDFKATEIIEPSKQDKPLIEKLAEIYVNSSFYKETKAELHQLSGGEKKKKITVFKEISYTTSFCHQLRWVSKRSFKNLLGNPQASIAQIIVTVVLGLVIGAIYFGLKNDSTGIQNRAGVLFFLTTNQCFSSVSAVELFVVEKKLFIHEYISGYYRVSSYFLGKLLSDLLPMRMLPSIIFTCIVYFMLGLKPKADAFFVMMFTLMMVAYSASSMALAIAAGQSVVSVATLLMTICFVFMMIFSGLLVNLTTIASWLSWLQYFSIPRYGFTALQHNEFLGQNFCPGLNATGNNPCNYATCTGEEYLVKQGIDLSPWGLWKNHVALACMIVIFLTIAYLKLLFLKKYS
Protocol: as §1, §2, §3

[2] = MATE1 assay, 12.50 μM, incubation 30 + 3 min
[3] = MATE1 assay, 50.00 μM, incubation 30 + 3 min
[4] = MATE1 assay, 100.00 μM, incubation 30 + 3 min
[5] = MATE2-K assay, 12.50 μM, incubation 30 + 1 min
[6] = MATE2-K assay, 50.00 μM, incubation 30 + 1 min
[7] = MATE2-K assay, 100.00 μM, incubation 30 + 1 min
[8] = OAT1 assay, 12.50 μM, incubation 30 + 2 min
[9] = OAT1 assay, 50.00 μM, incubation 30 + 2 min
[10] = OAT1 assay, 100.00 μM, incubation 30 + 2 min
[11] = OAT3 assay, 12.50 μM, incubation 30 + 1 min
[12] = OAT3 assay, 50.00 μM, incubation 30 + 1 min
[13] = OAT3 assay, 100.00 μM, incubation 30 + 1 min
[14] = OATP1B1 assay, 12.50 μM, incubation 30 + 3 min
[15] = OATP1B1 assay, 50.00 μM, incubation 30 + 3 min
[16] = OATP1B1 assay, 100.00 μM, incubation 30 + 3 min
[17] = OATP1B3 assay, 12.50 μM, incubation 30 + 2 min
[18] = OATP1B3 assay, 50.00 μM, incubation 30 + 2 min
[19] = OATP1B3 assay, 100.00 μM, incubation 30 + 2 min
[20] = OCT1 assay, 12.50 μM, incubation 30 + 3 min
[21] = OCT1 assay, 50.00 μM, incubation 30 + 3 min
[22] = OCT1 assay, 100.00 μM, incubation 30 + 3 min
[23] = OCT2 assay, 12.50 μM, incubation 30 + 1 min
[24] = OCT2 assay, 50.00 μM, incubation 30 + 1 min
[25] = OCT2 assay, 100.00 μM, incubation 30 + 1 min
[26] = 0.14 μM nominal, follow-up assay
[27] = 1.24 μM nominal, follow-up assay
[28] = 11.11 μM nominal, follow-up assay
[29] = 33.33 μM nominal, follow-up assay
[30] = 100.00 μM nominal, follow-up assay

BSEP, sequence (O95342 whole entry): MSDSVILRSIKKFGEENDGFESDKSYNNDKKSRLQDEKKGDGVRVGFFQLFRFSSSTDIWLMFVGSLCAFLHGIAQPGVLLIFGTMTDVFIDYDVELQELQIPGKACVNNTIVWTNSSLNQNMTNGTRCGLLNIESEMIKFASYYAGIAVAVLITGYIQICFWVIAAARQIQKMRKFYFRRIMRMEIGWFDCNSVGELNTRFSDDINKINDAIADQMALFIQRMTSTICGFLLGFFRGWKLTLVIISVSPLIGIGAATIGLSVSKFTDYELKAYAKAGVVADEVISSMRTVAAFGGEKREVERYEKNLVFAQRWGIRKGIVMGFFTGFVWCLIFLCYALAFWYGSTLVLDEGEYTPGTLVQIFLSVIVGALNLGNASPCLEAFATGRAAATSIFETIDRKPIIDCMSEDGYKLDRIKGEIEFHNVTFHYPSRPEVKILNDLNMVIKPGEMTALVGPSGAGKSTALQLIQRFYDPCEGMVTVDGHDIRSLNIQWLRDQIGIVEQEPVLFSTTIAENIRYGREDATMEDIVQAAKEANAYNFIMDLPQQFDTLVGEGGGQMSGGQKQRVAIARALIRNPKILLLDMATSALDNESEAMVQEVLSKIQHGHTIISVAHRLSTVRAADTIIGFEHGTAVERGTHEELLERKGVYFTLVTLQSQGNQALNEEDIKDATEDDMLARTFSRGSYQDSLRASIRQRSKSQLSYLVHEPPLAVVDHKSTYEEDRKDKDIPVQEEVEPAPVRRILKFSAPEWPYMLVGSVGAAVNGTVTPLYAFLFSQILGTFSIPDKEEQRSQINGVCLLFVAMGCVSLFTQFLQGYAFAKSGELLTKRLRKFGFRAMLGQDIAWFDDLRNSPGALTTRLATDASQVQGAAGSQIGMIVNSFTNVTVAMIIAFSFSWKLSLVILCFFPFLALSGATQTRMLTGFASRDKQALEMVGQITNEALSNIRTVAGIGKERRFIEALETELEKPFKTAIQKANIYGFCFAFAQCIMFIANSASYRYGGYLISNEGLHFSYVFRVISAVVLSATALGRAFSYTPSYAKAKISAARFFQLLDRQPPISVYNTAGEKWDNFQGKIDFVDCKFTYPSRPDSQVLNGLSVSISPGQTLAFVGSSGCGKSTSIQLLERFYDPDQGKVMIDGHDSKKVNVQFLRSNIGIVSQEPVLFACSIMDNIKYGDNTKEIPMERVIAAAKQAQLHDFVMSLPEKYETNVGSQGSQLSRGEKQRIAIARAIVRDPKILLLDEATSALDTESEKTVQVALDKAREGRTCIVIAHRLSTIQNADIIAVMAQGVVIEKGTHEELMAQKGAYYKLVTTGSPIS

Clc1ccc(C2(OCC3OCCO3)c3ccccc3C3=NCCN32)cc1 (centres unmarked) [Compound I-19]
Cell viability (cytotoxic effect) ([1]; HEK293-MATE1-LV, -MATE2-K-LV, -OAT1-LV, -OAT3-LV, -OATP1B1-LV, -OATP1B3-LV, -OCT1-LV, -OCT2-LV and control cells): did not reduce the cell viability
Relative cell viability, control cells [1, 2]: 97.67 ± 3.73 % of control
Relative cell viability, transfected cells [1, 2]: 97.90 ± 1.86 % of control
Relative cell viability, control cells [1, 3]: 93.64 ± 2.83 % of control
Relative cell viability, transfected cells [1, 3]: 95.88 ± 2.04 % of control
Relative cell viability, control cells [1, 4]: 85.16 ± 2.74 % of control
Relative cell viability, transfected cells [1, 4]: 97.35 ± 2.64 % of control
Relative cell viability, control cells [1, 5]: 104.66 ± 2.14 % of control
Relative cell viability, transfected cells [1, 5]: 101.07 ± 1.57 % of control
Relative cell viability, control cells [1, 6]: 104.14 ± 1.46 % of control
Relative cell viability, transfected cells [1, 6]: 106.73 ± 1.88 % of control
Relative cell viability, control cells [1, 7]: 84.34 ± 2.47 % of control
Relative cell viability, transfected cells [1, 7]: 101.71 ± 1.17 % of control
Relative cell viability, control cells [1, 8]: 98.64 ± 5.98 % of control
Relative cell viability, transfected cells [1, 8]: 97.97 ± 3.47 % of control
Relative cell viability, control cells [1, 9]: 97.24 ± 5.90 % of control
Relative cell viability, transfected cells [1, 9]: 95.01 ± 3.42 % of control
Relative cell viability, control cells [1, 10]: 90.45 ± 6.49 % of control
Relative cell viability, transfected cells [1, 10]: 88.69 ± 3.44 % of control
Relative cell viability, control cells [1, 11]: 102.06 ± 3.84 % of control
Relative cell viability, transfected cells [1, 11]: 99.42 ± 0.98 % of control
Relative cell viability, control cells [1, 12]: 92.66 ± 3.32 % of control
Relative cell viability, transfected cells [1, 12]: 97.87 ± 1.31 % of control
Relative cell viability, control cells [1, 13]: 83.05 ± 3.00 % of control
Relative cell viability, transfected cells [1, 13]: 97.06 ± 1.13 % of control
Relative cell viability, control cells [1, 14]: 96.78 ± 4.68 % of control
Relative cell viability, transfected cells [1, 14]: 99.91 ± 0.74 % of control
Relative cell viability, control cells [1, 15]: 93.42 ± 4.34 % of control
Relative cell viability, transfected cells [1, 15]: 98.71 ± 0.94 % of control
Relative cell viability, control cells [1, 16]: 89.12 ± 4.63 % of control
Relative cell viability, transfected cells [1, 16]: 94.19 ± 1.27 % of control
Relative cell viability, control cells [1, 17]: 103.94 ± 0.47 % of control
Relative cell viability, transfected cells [1, 17]: 102.23 ± 1.09 % of control
Relative cell viability, control cells [1, 18]: 101.22 ± 1.01 % of control
Relative cell viability, transfected cells [1, 18]: 101.42 ± 1.04 % of control
Relative cell viability, control cells [1, 19]: 95.06 ± 1.40 % of control
Relative cell viability, transfected cells [1, 19]: 97.75 ± 0.86 % of control
Relative cell viability, control cells [1, 20]: 101.25 ± 5.53 % of control
Relative cell viability, transfected cells [1, 20]: 92.84 ± 3.54 % of control
Relative cell viability, control cells [1, 21]: 98.64 ± 5.26 % of control
Relative cell viability, transfected cells [1, 21]: 92.82 ± 3.41 % of control
Relative cell viability, control cells [1, 22]: 92.32 ± 6.47 % of control
Relative cell viability, transfected cells [1, 22]: 86.46 ± 3.25 % of control
Relative cell viability, control cells [1, 23]: 99.87 ± 1.09 % of control
Relative cell viability, transfected cells [1, 23]: 99.66 ± 1.41 % of control
Relative cell viability, control cells [1, 24]: 97.55 ± 0.85 % of control
Relative cell viability, transfected cells [1, 24]: 99.58 ± 1.02 % of control
Relative cell viability, control cells [1, 25]: 87.66 ± 0.85 % of control
Relative cell viability, transfected cells [1, 25]: 96.29 ± 1.73 % of control
decrease of the relative cell viability compared to solvent (DMSO) ([1]; all uptake transporter overexpressing and control cells): less than 20%
ATP-dependent transport (BSEP; [26]): 5,664.33 ± 228.93 cpm
Relative ATP-dependent transport (BSEP; [26]): 114.35 ± 6.07 % of control
Relative inhibition (BSEP; [26]): −14%
ATP-dependent transport (BSEP; [27]): 4,919.33 ± 50.10 cpm
Relative ATP-dependent transport (BSEP; [27]): 99.31 ± 4.70 % of control
Relative inhibition (BSEP; [27]): 1%
ATP-dependent transport (BSEP; 10.00 μM nominal): 4,410.33 ± 297.54 cpm
Relative ATP-dependent transport (BSEP; 10.00 μM nominal): 90.09 ± 6.36 % of control
Relative inhibition (BSEP; 10.00 μM nominal): 10%
ATP-dependent transport (BSEP; [28]): 4,442.00 ± 98.02 cpm
Relative ATP-dependent transport (BSEP; [28]): 89.68 ± 4.59 % of control
Relative inhibition (BSEP; [28]): 10%
ATP-dependent transport (BSEP; [29]): 3,105.00 ± 99.98 cpm
Relative ATP-dependent transport (BSEP; [29]): 62.69 ± 3.53 % of control
Relative inhibition (BSEP; [29]): 37%
ATP-dependent transport (BSEP; 100.00 μM nominal): 1,103.00 ± 205.45 cpm
Relative ATP-dependent transport (BSEP; 100.00 μM nominal): 22.53 ± 4.22 % of control
Relative inhibition (BSEP; 100.00 μM nominal): 77%
ATP-dependent transport (BSEP; [30]): 1,333.33 ± 146.13 cpm
Relative ATP-dependent transport (BSEP; [30]): 26.92 ± 3.20 % of control
Relative inhibition (BSEP; [30]): 73%
maximum inhibition of BSEP-mediated taurocholate accumulation (BSEP; 2-concentration assay, up to 100 μM (Compound A up to 35 μM)): 77%
Maximum % inhibition (BSEP; BSEP, inside-out membrane vesicles, TC (0.2 μM), NIO: No inhibition observed): 73%
maximum inhibition of BSEP-mediated taurocholate accumulation (BSEP; follow-up assay): 73%
IC50 (BSEP; follow-up assay, bottom constrained to 0): 45.3 µM
ATP-dependent transport (BCRP; [26]): 13,445.33 ± 1,138.41 cpm
Relative ATP-dependent transport (BCRP; [26]): 98.49 ± 11.79 % of control
Relative inhibition (BCRP; [26]): 2%
ATP-dependent transport (BCRP; [27]): 12,617.00 ± 500.27 cpm
Relative ATP-dependent transport (BCRP; [27]): 92.42 ± 8.64 % of control
Relative inhibition (BCRP; [27]): 8%
ATP-dependent transport (BCRP; 10.00 μM nominal): 15,363.00 ± 602.94^ cpm
Relative ATP-dependent transport (BCRP; 10.00 μM nominal): 94.72 ± 7.53 % of control
Relative inhibition (BCRP; 10.00 μM nominal): 5%
ATP-dependent transport (BCRP; [28]): 12,797.67 ± 194.88 cpm
Relative ATP-dependent transport (BCRP; [28]): 93.75 ± 8.06 % of control
Relative inhibition (BCRP; [28]): 6%
ATP-dependent transport (BCRP; [29]): 10,739.00 ± 289.94 cpm
Relative ATP-dependent transport (BCRP; [29]): 78.67 ± 6.99 % of control
Relative inhibition (BCRP; [29]): 21%
ATP-dependent transport (BCRP; 100.00 μM nominal): 7,418.33 ± 222.69 cpm
Relative ATP-dependent transport (BCRP; 100.00 μM nominal): 45.74 ± 3.45 % of control
Relative inhibition (BCRP; 100.00 μM nominal): 54%
ATP-dependent transport (BCRP; [30]): 7,718.00 ± 183.19 cpm
Relative ATP-dependent transport (BCRP; [30]): 56.54 ± 4.97 % of control
Relative inhibition (BCRP; [30]): 43%
Maximum % inhibition (BCRP; BCRP, inside-out membrane vesicles, E3S (1 μM), NIO: No inhibition observed): 43%
maximum inhibition of BCRP-mediated E3S accumulation (BCRP; follow-up assay, seven concentrations): 43%
